Results taken from paper PMC7115614 (European Journal of Medicinal Chemistry, 2019).

What was measured:
[1] = tested on: human embryonic lung (HEL) cells; details: Table 5
MCF-7 cells = assay: Annexin V assay for apoptosis/necrosis detection; format: cell-based, human; details: MCF-7, after 48 h, versus control
hydroxy-HIF-1α (Pro564) = assay: Western blot, hydroxy-HIF-1α in MCF-7 cells; format: cell-based, human; details: 0.08 μM, 24 and 48 h
NOS2 = assay: Western blot, NOS2 in MCF-7 cells; format: cell-based, human; details: 0.08 μM, 24 and 48 h

## COc1ccccc1-c1cn(C/C=C2\OC(=O)C(OCc3ccccc3)=C2OCc2ccccc2)nn1 [Compound 10h]
[1]
  Cytotoxicity Cell morphology (MCC): 100 μM

## Nc1ccn(C[C@@H](CO)OCP(=O)(O)O)c(=O)n1.O.O [Cidofovir, reference compound]
[1]
  Cytotoxicity Cell morphology (MCC): >300 μM

## CCCCCCCCCCc1cn(C[C@H](O)[C@H]2OC(=O)C(OCc3ccccc3)=C2OCc2ccccc2)nn1 [Compound 8m, 2,3-O,O-dibenzyl-6-(4-decyl-1,2,3-triazol-1-yl)-6-deoxy-L-ascorbic acid]
MCF-7 cells
  increase in late apoptotic cell population: 24.7%
  increase of necrotic cell populations: 7.92%
hydroxy-HIF-1α (Pro564)
  hydroxylated HIF-1α levels: significant increase
NOS2
  levels of NOS2: decreased levels
[1]
  Cytotoxicity Cell morphology (MCC): 20 μM

## C[Si](C)(C)c1cn(C[C@H](O)[C@H]2OC(=O)C(OCc3ccccc3)=C2OCc2ccccc2)nn1 [Compound 8b, 2,3-O,O-dibenzyl-6-deoxy-6-(4-trimethylsilyl-1,2,3-triazol-1-yl)-L-ascorbic acid]
[1]
  Cytotoxicity Cell morphology (MCC): 100 μM

## O=c1[nH]c(=O)n([C@H]2C[C@H](O)[C@@H](CO)O2)cc1/C=C/Br [Brivudin, reference compound]
[1]
  Cytotoxicity Cell morphology (MCC): >300 μM

## O=C1O/C(=C\Cn2cc(CCO)nn2)C(OCc2ccccc2)=C1OCc1ccccc1 [Compound 10p]
[1]
  Cytotoxicity Cell morphology (MCC): >100 μM

## O=C1O/C(=C\Cn2cc(-c3cc(F)cc(F)c3)nn2)C(OCc2ccccc2)=C1OCc1ccccc1 [Compound 10d]
[1]
  Cytotoxicity Cell morphology (MCC): 100 μM

## O=C1O/C(=C\Cn2cc(-c3ccc(Br)cc3)nn2)C(OCc2ccccc2)=C1OCc1ccccc1 [Compound 10e]
[1]
  Cytotoxicity Cell morphology (MCC): >100 μM

## O=C1O[C@H]([C@@H](O)Cn2cc(C3CC3)nn2)C(OCc2ccccc2)=C1OCc1ccccc1 [Compound 8k, 2,3-O,O-dibenzyl-6-[4-cyclopropyl-1,2,3-triazol-1-yl]-6-deoxy-L-ascorbic acid]
[1]
  Cytotoxicity Cell morphology (MCC): 100 μM

## CC(C)(C)c1cn(C[C@H](O)[C@H]2OC(=O)C(OCc3ccccc3)=C2OCc2ccccc2)nn1 [Compound 8n, 2,3-O,O-dibenzyl-6-(4-tert-butyl-1,2,3-triazol-1-yl)-6-deoxy-L-ascorbic acid]
[1]
  Cytotoxicity Cell morphology (MCC): 100 μM

## COc1ccc(-c2cn(C/C=C3\OC(=O)C(OCc4ccccc4)=C3OCc3ccccc3)nn2)cc1 [Compound 10g]
[1]
  Cytotoxicity Cell morphology (MCC): >100 μM

## Cc1ccc(-c2cn(C/C=C3\OC(=O)C(OCc4ccccc4)=C3OCc3ccccc3)nn2)cc1 [Compound 10f]
[1]
  Cytotoxicity Cell morphology (MCC): 20 μM

## CCCCc1cn(C[C@H](O)[C@H]2OC(=O)C(OCc3ccccc3)=C2OCc2ccccc2)nn1 [Compound 8l, 2,3-O,O-dibenzyl-6-(4-butyl-1,2,3-triazol-1-yl)-6-deoxy-L-ascorbic acid]
[1]
  Cytotoxicity Cell morphology (MCC): 20 μM

## CC(C)(C)c1cn(C/C=C2\OC(=O)C(OCc3ccccc3)=C2OCc2ccccc2)nn1 [Compound 10n]
[1]
  Cytotoxicity Cell morphology (MCC): 100 μM
